Earlier results as cited in patent US20220387349A1, “TREATMENT OF CUTANEOUS ADVERSE EFFECTS CAUSED BY ONCOLOGICAL THERAPY WITH TOPICAL TAPINAROF COMPOSITIONS” (Sol-Gel Technologies Ltd, priority 2019, published 2022).
Like-named read-outs stand apart in the source and are kept apart here.

Tests used:
[1] = test system: interleukin-6 and interleukin-17A; conditions: mouse models
[2] = psoriasis treatment, as a single drug; placebo 20.2%
[3] = test system: interleukin-6 and interleukin-17A; conditions: in vitro human skin studies
[4] = 1% tapinarof arm compared with the 0.5% arm or vehicle

SMILES	effect on skin barrier function [1]	effect on specific proinflammatory mediators, including interleukin-6 and interleukin-17A [1]	adverse effects [2]	efficacy [4]	onset of action [4]	most frequent adverse events (topical tapinarof)	side-effects at higher concentrations (topical, higher than 1% w/w tapinarof)	effect on skin barrier function [3]	effect on specific proinflammatory mediators, including interleukin-6 and interleukin-17A [3]
CC(C)c1c(O)cc(/C=C/c2ccccc2)cc1O [Tapinarof, 3,5-dihydroxy-4-isopropyl-trans-stilbene]	enhance skin barrier function	inhibit specific proinflammatory mediators	44.5%	higher efficacy	quicker onset of action	folliculitis and contact dermatitis	undesirable side-effects	enhance skin barrier function	inhibit specific proinflammatory mediators
C=C1/C(=C\C=C2/CCC[C@]3(C)[C@@H]([C@H](C)/C=C/[C@@H](O)C4CC4)CC[C@@H]23)C[C@@H](O)C[C@@H]1O [calcipotriene]	–	–	19.5%	–	–	–	–	–	–
